Here are results for 51 compounds from US8071612B2, “6-alkenyl and 6-phenylalkyl substituted 2-quinolinones and 2-quinoxalinones as poly(ADP-ribose) polymerase inhibitors” (Janssen Pharmaceutica, NV, priority 2004, dated 2011).

The test deals with T1, PARP-1 enzyme (Homo sapiens, UniProt P09874).
T1 construct: made in house
T1 sequence (P09874 whole entry): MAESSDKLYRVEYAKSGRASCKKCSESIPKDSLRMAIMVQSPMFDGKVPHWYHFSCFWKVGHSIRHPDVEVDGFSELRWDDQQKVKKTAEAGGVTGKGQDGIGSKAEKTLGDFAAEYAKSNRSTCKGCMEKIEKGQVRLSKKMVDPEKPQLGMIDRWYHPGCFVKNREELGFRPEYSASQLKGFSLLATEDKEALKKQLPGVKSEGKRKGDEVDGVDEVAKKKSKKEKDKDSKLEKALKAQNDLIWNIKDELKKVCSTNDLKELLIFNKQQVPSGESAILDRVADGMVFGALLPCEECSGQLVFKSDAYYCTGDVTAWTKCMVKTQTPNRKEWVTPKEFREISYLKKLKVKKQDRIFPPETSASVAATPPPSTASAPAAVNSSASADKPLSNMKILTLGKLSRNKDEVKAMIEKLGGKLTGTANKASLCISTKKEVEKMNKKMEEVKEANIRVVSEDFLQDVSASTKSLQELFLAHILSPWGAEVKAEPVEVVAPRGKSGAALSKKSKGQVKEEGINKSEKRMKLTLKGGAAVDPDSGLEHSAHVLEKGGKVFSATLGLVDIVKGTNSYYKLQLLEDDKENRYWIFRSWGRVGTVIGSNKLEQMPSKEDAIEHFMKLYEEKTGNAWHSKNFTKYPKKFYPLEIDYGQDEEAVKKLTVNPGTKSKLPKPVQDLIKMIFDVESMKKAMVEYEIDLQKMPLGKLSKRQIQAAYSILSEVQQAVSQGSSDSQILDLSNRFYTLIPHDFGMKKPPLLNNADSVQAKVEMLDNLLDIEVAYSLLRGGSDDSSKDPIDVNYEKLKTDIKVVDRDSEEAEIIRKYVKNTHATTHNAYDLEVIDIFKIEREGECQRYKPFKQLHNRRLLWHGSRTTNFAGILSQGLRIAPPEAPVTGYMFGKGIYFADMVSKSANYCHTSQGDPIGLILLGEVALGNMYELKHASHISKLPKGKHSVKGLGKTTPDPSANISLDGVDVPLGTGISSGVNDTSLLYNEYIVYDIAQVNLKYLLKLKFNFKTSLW
Briefly: In vitro Scintillation Proximity Assay (SPA) for PARP-1 inhibitory activity. The test is classed as biochemical. The note with it: nicked DNA activated PARP-1, [3H]-NAD+, biotinylated histones; read-out: In vitro SPA pIC50 (converted). The protocol:
Compounds of the present invention were tested in an in vitro assay based on SPA technology (proprietary to Amersham Pharmacia Biotech).
In principle, the assay relies upon the well established SPA technology for the detection of poly(ADP-ribosyl)ation of biotinylated target proteins, i.e histones. This ribosylation is induced using nicked DNA activated PARP-1 enzyme and [^3H]-nicotinamide adenine dinucleotide ([^3H]-NAD^+) as ADP-ribosyl donor.
As inducer of PARP-1 enzyme activity, nicked DNA was prepared. For this, 25 mg of DNA (supplier: Sigma) was dissolved in 25 ml DNAse buffer (10 mM Tris-HCl, pH 7.4; 0.5 mg/ml Bovine Serum Albumine (BSA); 5 mM MgCl2.6H2O and 1 mM KCl) to which 50 μl DNAse solution (1 mg/ml in 0.15 M NaCl) was added. After an incubation of 90 min. at 37° C., the reaction was terminated by adding 1.45 g NaCl, followed by a further incubation at 58° C. for 15 min. The reaction mixture was cooled on ice and dialysed at 4° C. for respectively 1.5 and 2 hours against 1.5 l of 0.2 M KCl, and twice against 1.5 l of 0.01 M KCl for 1.5 and 2 h respectively. The mixture was aliquoted and stored at −20° C. Histones (1 mg/ml, type II-A, supplier: Sigma) were biotinylated using the biotinylation kit of Amersham and stored aliquoted at −20° C. A stock solution of 100 mg/ml SPA poly(vinyl toluene) (PVT) beads (supplier: Amersham) was made in PBS. A stock solution of [^3]H-NAD^+ was made by adding 120 μl of [^3H]-NAD^+ (0.1 mCi/ml, supplier: NEN) to 6 ml incubation buffer (50 mM Tris/HCl, pH 8; 0.2 mM DTT; 4 mM MgCl2). A solution of 4 mM NAD^+ (supplier: Roche) was made in incubation buffer (from a 100 mM stock solution in water stored at −20° C.). The PARP-1 enzyme was produced using art known techniques, i.e. cloning and expression of the protein starting from human liver cDNA. Information concerning the used protein sequence of the PARP-1 enzyme including literature references can be found in the Swiss-Prot database under primary accession number P09874. Biotinylated histones and PVT-SPA beads were mixed and pre-incubated for 30 min. at room temperature. PARP-1 enzyme (concentration was lot dependent) was mixed with the nicked DNA and the mixture was pre-incubated for 30 min. at 4° C. Equal parts of this histones/PVT-SPA beads solution and PARP-1 enzyme/DNA solution were mixed and 75 μl of this mixture together with 1 μl of compound in DMSO and 25 μl of [^3H]-NAD^+ was added per well into a 96-well microtiterplate. The final concentrations in the incubation mixture were 2 μg/ml for the biotinylated histones, 2 mg/ml for the PVT-SPA beads, 2 μg/ml for the nicked DNA and between 5-10 μg/ml for the PARP-1 enzyme. After incubation of the mixture for 15 min. at room temperature, the reaction was terminated by adding 100 μl of 4 mM NAD^+ in incubation buffer (final concentration 2 mM) and plates were mixed.
The beads were allowed to sediment for at least 15 min. and plates transferred to a TopCountNXT™ (Packard) for scintillation counting, values were expressed as counts per minute (cpm). For each experiment, controls (containing PARP-1 enzyme and DMSO without compound), a blank incubation (containing DMSO but no PARP-1 enzyme or compound) and samples (containing PARP-1 enzyme and compound dissolved in DMSO) were run in parallel. All compounds tested were dissolved and eventually further diluted in DMSO. In first instance, compounds were tested at a concentration of 10^−5 M or 10^−6M. […] In each test, the blank value was subtracted from both the control and the sample values. The control sample represented maximal PARP-1 enzyme activity. For each sample, the amount of cpm was expressed as a percentage of the mean cpm value of the controls. When appropriate, IC50-values (concentration of the drug, needed to reduce the PARP-1 enzyme activity to 50% of the control) were computed using linear interpolation between the experimental points just above and below the 50% level. […]
In general terms: Scintillation proximity formats need no separation of bound from free tracer.
Turning to `CCc1cc2cc(C(c3ccc4c(c3)OCCO4)C3CC[N+](C/C=C/c4ccccc4)(C/C=C/c4ccccc4)CC3)ccc2[nH]c1=O` (stereo not drawn) [Compound 15], the IC50 is 119 nM. Take `CCc1cc2cc(C(c3ccc4c(c3)OCCO4)N3CCC(CCN4CCCCC4)CC3)ccc2[nH]c1=O` (stereo not drawn) [Compound 31]: the IC50 was 21.3 nM. For `O=c1[nH]c2ccc(C(NCCCN3CCCCC3)c3cccc(C(F)(F)F)c3)cc2c2ccccc12` (stereo not drawn) [Compound 32], the IC50 was 74.6 nM. For `CCc1cc2cc(C(c3ccc4c(c3)OCCO4)N3CCC(NCCOC)CC3)ccc2[nH]c1=O` (stereo not drawn) [Compound 33] the value was 25.7 nM; for `CCc1cc2cc(C(c3cccc(OC(F)(F)F)c3)N3CCC(NCCOC)CC3)ccc2[nH]c1=O` (stereo not drawn) [Compound 34], 525 nM; for `CCc1cc2cc(C(c3ccc(C(F)(F)F)cc3F)N3CCC(NCCOC)CC3)ccc2[nH]c1=O` (stereo not drawn) [Compound 35], 802 nM. For `CCc1cc2cc(C(c3ccc(OCCCN(C)C)cc3)N3CCC(NCCOC)CC3)ccc2[nH]c1=O` (stereo not drawn) [Compound 36], the IC50 was 299 nM. Regarding `CCc1cc2cc(C(c3ccc4c(c3)OCCO4)N3CCN(CCN4CCCCC4)CC3)ccc2[nH]c1=O` (stereo not drawn) [Compound 40], the IC50 is 23.7 nM. For `CCc1cc2cc(C(c3ccc4c(c3)OCCO4)N3CCN(CC4CCCCC4)CC3)ccc2[nH]c1=O` (stereo not drawn) [Compound 41] the value was 122 nM. As for `CCc1cc2cc(C(c3ccc4c(c3)OCO4)n3nc(C4CCNCC4)c4ccc(F)cc43)ccc2[nH]c1=O` (stereo not drawn) [Compound 42], the IC50 was 948 nM. `CCc1cc2cc(C(c3ccc4c(c3)OCCO4)N3CCN(CCN4CCCCCC4)CC3)ccc2[nH]c1=O` (stereo not drawn) [Compound 43]: the IC50 is 21.2 nM. `CCc1cc2cc(C(NCCN3CCC(C(=O)c4ccc(F)cc4)CC3)c3ccc4c(c3)OCCO4)ccc2[nH]c1=O` (stereo not drawn) [Compound 44]: the IC50 was 92.3 nM. For `O=c1[nH]c2ccc(C(NCCN3CCC(c4n[nH]c5cc(F)ccc45)CC3)c3ccc4c(c3)OCCO4)cc2c2ccccc12` (stereo not drawn) [Compound 45] the value was 45.6 nM. `CCc1cc2cc(C(c3ccc4c(c3)OCCO4)N3CCC(c4n[nH]c5cc(F)ccc45)CC3)ccc2[nH]c1=O` (stereo not drawn) [Compound 46]: the IC50 was 405 nM. For `O=c1[nH]c2ccc(C(NCCN3CCC(c4n[nH]c5cc(F)ccc45)CC3)c3cccc(C(F)(F)F)c3)cc2c2ccccc12` (stereo not drawn) [Compound 47] the value was 516 nM; for `COCCNC1CCN(C(c2cccc(C(F)(F)F)c2)c2ccc3[nH]c(=O)c4ccccc4c3c2)CC1` (stereo not drawn) [Compound 48], 190 nM. For `CN(CCCNC(c1cccc(C(F)(F)F)c1)c1ccc2[nH]c(=O)c3ccccc3c2c1)Cc1ccccc1` (stereo not drawn) [Compound 49] the value was 406 nM; for `CCc1nc2cc(C(NCCN3CCC(C(=O)c4ccc(F)cc4)CC3)c3ccccc3)ccc2[nH]c1=O` (stereo not drawn) [Compound 50], 678 nM. Regarding `CCc1nc2cc(C(NCCCN3CCCCC3)c3ccccc3)ccc2[nH]c1=O` (stereo not drawn) [Compound 51], the IC50 was 459 nM. Consider `CCc1cc2cc(C(NCCCN3CCCCC3)c3ccc4c(c3)OCCO4)ccc2[nH]c1=O` (stereo not drawn) [Compound 52], for which the IC50 is 54.6 nM. Consider `CCc1cc2cc(C(NC3CCCN(Cc4ccccc4)C3)c3ccc4c(c3)OCCO4)ccc2[nH]c1=O` (stereo not drawn) [Compound 53], for which the IC50 is 152 nM. In the case of `CCc1cc2cc(C(c3ccc4c(c3)OCO4)N3CCC(NCCOC)CC3)ccc2[nH]c1=O` (stereo not drawn) [Compound 54], the IC50 is 101 nM. With `CCc1cc2cc(C(OCCN(C)C)c3ccc4c(c3)OCCO4)ccc2[nH]c1=O` (stereo not drawn) [Compound 55], the IC50 is 18.4 nM. For the compound `CCc1nc2cc(C(NCCCN(C)Cc3ccccc3)c3ccccc3)ccc2[nH]c1=O` (stereo not drawn) [Compound 56], the IC50 is 511 nM. In the case of `CCc1cc2cc(C(NCCCN(C)Cc3ccccc3)c3ccc4c(c3)OCCO4)ccc2[nH]c1=O` (stereo not drawn) [Compound 57], the IC50 was 33.6 nM. In the case of `CCc1nc2cc(C(c3ccccc3)N3CCC(NCCOC)CC3)ccc2[nH]c1=O` (stereo not drawn) [Compound 58], the IC50 is 582 nM.

Regarding `CCc1cc2cc(C(c3cccc(F)c3)N3CCC(NCCOC)CC3)ccc2[nH]c1=O` (stereo not drawn) [Compound 59], the IC50 is 217 nM. Then `CCc1cc2cc(C(c3ccc(Cl)cc3)N3CCN(C)CC3)ccc2[nH]c1=O` (stereo not drawn) [Compound 60], with 296 nM; and `CCc1cc2cc(C(c3ccc4ccccc4c3)N3CCC(NCCOC)CC3)ccc2[nH]c1=O` (stereo not drawn) [Compound 61], with 276 nM; and `CCc1cc2cc(C(c3ccccc3F)N3CCC(NCCOC)CC3)ccc2[nH]c1=O` (stereo not drawn) [Compound 62], with 312 nM. For `CCc1cc2cc(C(c3ccc(Cl)c(F)c3)N3CCC(NCCOC)CC3)ccc2[nH]c1=O` (stereo not drawn) [Compound 63] the value was 361 nM; for `CCc1cc2cc(C(c3ccc(C)cc3C)N3CCC(NCCOC)CC3)ccc2[nH]c1=O` (stereo not drawn) [Compound 64], 532 nM. Then `CCc1cc2cc(C(c3ccc(N(C)C)cc3)N3CCC(NCCOC)CC3)ccc2[nH]c1=O` (stereo not drawn) [Compound 65], with 292 nM. Consider `CCc1cc2cc(C(c3ccc(Cl)cc3Cl)N3CCC(NCCOC)CC3)ccc2[nH]c1=O` (stereo not drawn) [Compound 66], for which the IC50 is 417 nM.

As for `CCc1cc2cc(C(c3ccc(F)cc3)N3CCC(NCCOC)CC3)ccc2[nH]c1=O` (stereo not drawn) [Compound 67], the IC50 was 208 nM.

As for `CCc1cc2cc(C(c3ccc(F)cc3F)N3CCC(NCCOC)CC3)ccc2[nH]c1=O` (stereo not drawn) [Compound 68], the IC50 was 373 nM. For `CCc1cc2cc(C(c3cc(C(F)(F)F)ccc3Cl)N3CCC(NCCOC)CC3)ccc2[nH]c1=O` (stereo not drawn) [Compound 69], the IC50 was 456 nM.

Turning to `CCc1cc2cc(C(c3ccc(C(F)(F)F)cc3)N3CCC(NCCOC)CC3)ccc2[nH]c1=O` (stereo not drawn) [Compound 70], the IC50 is 762 nM. For the compound `CCc1cc2cc(C(OCCN(C)C)c3cccc(Cl)c3)ccc2[nH]c1=O` (stereo not drawn) [Compound 71], the IC50 was 177 nM. Regarding `CCc1cc2cc(C(c3c(Cl)cccc3Cl)N3CCC(NCCOC)CC3)ccc2[nH]c1=O` (stereo not drawn) [Compound 73], the IC50 was 124 nM. Take `CCc1cc2cc(C(c3ccccc3Cl)N3CCC(NCCOC)CC3)ccc2[nH]c1=O` (stereo not drawn) [Compound 74]: the IC50 was 211 nM.

Take `CCc1cc2cc(C(c3cccc(Cl)c3)N3CCN(C)CC3)ccc2[nH]c1=O` (stereo not drawn) [Compound 75]: the IC50 is 339 nM. For the compound `CCc1cc2cc(C(c3cccc4ccccc34)N3CCC(NCCOC)CC3)ccc2[nH]c1=O` (stereo not drawn) [Compound 76], the IC50 is 411 nM. Take `CCc1cc2cc(C(c3ccccc3C)N3CCC(NCCOC)CC3)ccc2[nH]c1=O` (stereo not drawn) [Compound 82]: the IC50 is 356 nM. For `CCc1cc2cc(C(c3ccc(Cl)c(Cl)c3)N3CCC(NCCOC)CC3)ccc2[nH]c1=O` (stereo not drawn) [Compound 83] the value was 498 nM. Then `CCc1nc2cc(C(c3ccccc3)N3CCC(=O)CC3)ccc2[nH]c1=O` (stereo not drawn) [Compound 84], with 318 nM; and `CCc1cc2cc(C(CCN(C)C)c3ccc4c(c3)OCCO4)ccc2[nH]c1=O` (stereo not drawn) [Compound 90], with 8.43 nM. With `O=CNC(c1cccc(C(F)(F)F)c1)c1ccc2[nH]c(=O)c3ccccc3c2c1` (stereo not drawn) [Compound 97], the IC50 is 31 nM. With `CCc1nc2cc(CC(O)c3ccccc3)ccc2[nH]c1=O` (stereo not drawn) [Compound 108], the IC50 is 406 nM. For `CCc1nc2cc(CC(=O)c3ccccc3)ccc2[nH]c1=O` [Compound 116] the value was 564 nM. Turning to `CCc1nc2cc(CC(c3ccc(Cl)cc3)N3CCN(C4CCCCC4)CC3)ccc2[nH]c1=O` (stereo not drawn) [Compound 117], the IC50 is 710 nM.
